Data reported in patent US20040106626A1, “6-Membered unsaturated heterocyclic compounds useful for selective inhibition of the coagulation cascade” (Pharmacia Corporation, priority 2001, published 2004).
Where a name gives a salt, the structure may show the parent alone.

Key:
Assay type in all cases: biochemical
Human factor Xa = biological target: T1, Human factor Xa (Homo sapiens, UniProt P00742); assay: Xa assay (chromogenic substrate S-2765); conditions: reported only as less than or greater than 30 uM; read-out: Factor Xa (II) IC50
T1 construct: purchased Enzyme Research Laboratories, South Bend Ind
T1 sequence (P00742 235-488 limits assumed): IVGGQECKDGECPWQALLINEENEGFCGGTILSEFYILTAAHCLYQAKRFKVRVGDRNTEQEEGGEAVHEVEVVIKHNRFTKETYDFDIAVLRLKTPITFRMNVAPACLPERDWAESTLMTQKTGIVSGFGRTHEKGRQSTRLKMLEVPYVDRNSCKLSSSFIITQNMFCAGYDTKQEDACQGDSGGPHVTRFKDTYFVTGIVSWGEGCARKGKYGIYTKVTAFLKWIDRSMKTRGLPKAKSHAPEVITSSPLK
T1 sequence (P00742 41-179 limits assumed): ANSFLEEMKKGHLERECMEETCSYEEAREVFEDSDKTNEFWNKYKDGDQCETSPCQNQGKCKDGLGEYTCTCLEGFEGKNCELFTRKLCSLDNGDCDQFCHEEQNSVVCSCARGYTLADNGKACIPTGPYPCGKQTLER
How it was run: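 Chromogenic readout: S-2765 hydrolysis (0.15 mM) by 0.3 nM human FXa was monitored at 405 nm after 60 min at room temperature, with a time-zero background read. Buffer: 50 mM Tris-HCl, pH 8.0, 100 mM NaCl, 0.1% BSA. Inhibition is relative to buffer-only controls.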

[1] = test system: Normal human pooled plasma; assay: Prothrombin time (PT) clotting assay; conditions: concentration at which prothrombin time is prolonged by 2x normal, reported as less than or greater than 50 uM
How it was run: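 Normal human pooled plasma incubated with 100 uM compound or saline, then thromboplastin (human tissue factor) added and clotting time recorded in a coagulation machine. Compounds exceeding 3× normal PT (11.0 s) are titrated to find the concentration doubling PT.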

Human thrombin = biological target: T2, Human thrombin (Homo sapiens, UniProt P00734); assay: Thrombin assay (chromogenic substrate); conditions: reported only as less than or greater than 30 uM; read-out: Thrombin (II) IC50
T2 construct: converts prothrombin (II) to thrombin (IIa); purchased Calbiochem, La Jolla, Calif
How it was run: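 Percent inhibition derived by comparing OD405 nm of compound-treated and control samples. Thrombin cleavage of a p-nitroanilide chromogenic substrate provides the signal.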

[2] = biological target: T3, recombinant soluble tissue factor and recombinant human factor VIIa (TF-VIIa) (Homo sapiens, UniProt P08709); assay: TF-VIIa assay (chromogenic substrate hydrolysis); conditions: reported only as less than or greater than 0.1 uM
T3 construct: conversion of coagulation factor VII to VIIa by factor Xa; purchased American Diagnostica, Greenwich CT; host or cells: soluble TF made in house in E. coli
T3 sequence (P08709 213-466 limits assumed): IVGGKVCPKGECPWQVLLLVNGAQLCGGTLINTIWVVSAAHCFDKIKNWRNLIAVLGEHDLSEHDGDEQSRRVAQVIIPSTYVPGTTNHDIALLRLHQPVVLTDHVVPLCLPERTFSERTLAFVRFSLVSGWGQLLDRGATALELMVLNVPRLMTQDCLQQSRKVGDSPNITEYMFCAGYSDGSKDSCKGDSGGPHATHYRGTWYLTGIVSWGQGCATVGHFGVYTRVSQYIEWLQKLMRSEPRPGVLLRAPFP
T3 sequence (P08709 61-212 limits assumed): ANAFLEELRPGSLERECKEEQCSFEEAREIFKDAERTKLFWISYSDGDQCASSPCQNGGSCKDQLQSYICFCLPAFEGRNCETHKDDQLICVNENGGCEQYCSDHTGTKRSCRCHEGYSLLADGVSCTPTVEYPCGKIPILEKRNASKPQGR
T3 sequence (P13726 33-251 partner limits assumed): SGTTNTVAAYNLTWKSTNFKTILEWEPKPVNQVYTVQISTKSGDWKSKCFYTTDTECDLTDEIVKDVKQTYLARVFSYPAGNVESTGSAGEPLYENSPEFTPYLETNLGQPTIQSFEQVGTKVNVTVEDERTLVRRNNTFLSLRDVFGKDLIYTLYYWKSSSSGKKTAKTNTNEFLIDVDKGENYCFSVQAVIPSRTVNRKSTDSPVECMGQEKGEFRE
How it was run: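 Chromogenic read at OD405, compared with control for percent inhibition. Substrate N-methylsulfonyl-D-phe-gly-arg-p-nitroaniline at 0.4 mM is cleaved by recombinant human VIIa (2 nM) complexed with soluble TF (100 nM). Buffer: pH 8.0 Tris-HCl 50 mM, CaCl2 5 mM, NaCl 100 mM, BSA 0.1%.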

IC50 (Human factor Xa) [µM]	IC50 (Human thrombin) [µM]	IC50 [2] [µM]	Structure (SMILES)	PT (Prothrombin time) 2xPT [1] [µM]
> 30	> 30	< 0.1	CC(C)Nc1ncc(-c2cc(N)cc(NS(=O)(=O)CCc3ccccc3)c2)n(CC(=O)NCc2ccc(C(=N)N)cc2)c1=O [Example 95]	<50.0
> 30	> 30	< 0.1	CC(C)Nc1ncc(-c2cc(N)cc(NS(=O)(=O)c3ccccc3)c2)n(CC(=O)NCc2ccc(C(=N)N)cc2)c1=O [Example 96]	<50.0
> 30	> 30	< 0.1	CC(C)Nc1ncc(-c2cc(N)cc(NCc3ccccc3)c2)n(CC(=O)NCc2ccc(C(=N)N)cc2)c1=O [Example 98]	<50.0
> 30	> 30	< 0.1	CC(C)Nc1ncc(-c2cc(N)cc(NC(=O)Cc3ccccc3)c2)n(CC(=O)NCc2ccc(C(=N)N)cc2)c1=O [Example 99]	<50.0
> 30	< 30	< 0.1	CC(C)Nc1ncc(-c2cc(N)cc(NC(=O)C3CCCC3)c2)n(CC(=O)NCc2ccc(C(=N)N)cc2)c1=O [Example 100]	<50.0
> 30	< 30	< 0.1	CC(C)Nc1ncc(-c2cc(N)cc(NCCC(C)c3ccccc3)c2)n(CC(=O)NCc2ccc(C(=N)N)cc2)c1=O (stereo not drawn) [Example 101]	<50.0
> 30	< 30	< 0.1	CC(C)CCNc1cc(N)cc(-c2cnc(NC(C)C)c(=O)n2CC(=O)NCc2ccc(C(=N)N)cc2)c1 [Example 102]	<50.0
> 30	> 30	< 0.1	CC(C)Nc1ncc(-c2cc(N)cc(NCc3ccsc3)c2)n(CC(=O)NCc2ccc(C(=N)N)cc2)c1=O [Example 103]	<50.0
> 30	< 30	< 0.1	CCCC(C)C(=O)Nc1cc(N)cc(-c2cnc(NC(C)C)c(=O)n2CC(=O)NCc2ccc(C(=N)N)cc2)c1 (stereo not drawn) [Example 104]	<50.0
> 30	> 30	< 0.1	COc1cccc(CC(=O)Nc2cc(N)cc(-c3cnc(NC(C)C)c(=O)n3CC(=O)NCc3ccc(C(=N)N)cc3)c2)c1 [Example 105]	<50.0
> 30	> 30	< 0.1	CC(C)Nc1ncc(-c2cc(N)cc(NC(=O)CCc3ccccc3)c2)n(CC(=O)NCc2ccc(C(=N)N)cc2)c1=O [Example 106]	<50.0
> 30	> 30	< 0.1	CC(C)Nc1ncc(-c2cc(N)cc(NC(=O)CCC3CCCC3)c2)n(CC(=O)NCc2ccc(C(=N)N)cc2)c1=O [Example 107]	<50.0
> 30	< 30	< 0.1	CCCc1ccc(C(=O)Nc2cc(N)cc(-c3cnc(NC(C)C)c(=O)n3CC(=O)NCc3ccc(C(=N)N)cc3)c2)cc1 [Example 108]	<50.0
> 30	< 30	< 0.1	CC(C)Nc1ncc(-c2cc(N)cc(NC(=O)c3ccccc3)c2)n(CC(=O)NCc2ccc(C(=N)N)cc2)c1=O [Example 109]	<50.0
> 30	> 30	< 0.1	CC(C)Nc1ncc(-c2cc(N)cc(NCCc3ccccc3)c2)n(CC(=O)NCc2ccc(C(=N)N)cc2)c1=O [Example 110, N-{4-[amino(imino)methyl]benzyl}-2-[6-{3-amino-5-[(2-phenylethyl)amino]phenyl}-3-(isopropylamino)-2-oxopyrazin-1 (2H)-yl]acetamide trifluoroacetate]	<50.0
> 30	> 30	< 0.1	CC(C)Nc1ncc(-c2cc(N)cc(NCCCc3ccccc3)c2)n(CC(=O)NCc2ccc(C(=N)N)cc2)c1=O [Example 111]	<50.0
> 30	< 30	< 0.1	CC(C)CC(=O)Nc1cc(N)cc(-c2cnc(NC(C)C)c(=O)n2CC(=O)NCc2ccc(C(=N)N)cc2)c1 [Example 112]	<50.0
> 30	> 30	< 0.1	CC(C)Nc1ncc(-c2cc(N)cc(NC(=O)Nc3ccccc3)c2)n(CC(=O)NCc2ccc(C(=N)N)cc2)c1=O [Example 113]	<50.0
> 30	> 30	< 0.1	CC(C)Nc1ncc(-c2cc(N)cc(NC(=O)NCc3ccccc3)c2)n(CC(=O)NCc2ccc(C(=N)N)cc2)c1=O [Example 114]	<50.0
> 30	> 30	< 0.1	COc1cc(N)cc(-c2cnc(NC(C)C)c(=O)n2CC(=O)NCc2cc(O)c(C(=N)N)c(F)c2)c1.Cl.Cl [Example 123]	<50.0

Structure (SMILES)	IC50 (Human factor Xa) [µM]	IC50 (Human thrombin) [µM]	IC50 [2] [µM]	PT (Prothrombin time) 2xPT [1] [µM]
CC(C)Nc1ncc(-c2cc(N)cc(C(F)(F)F)c2)n(CC(=O)NCc2cc(O)c(C(=N)N)c(F)c2)c1=O.O=C(O)C(F)(F)F [Example 116]	< 30	> 30	> 0.1	<50.0
CC(C)Nc1ncc(-c2cc(N)cc(C(=O)O)c2)n(CC(=O)NCc2ccc(C(=N)N)cc2)c1=O.O=C(O)C(F)(F)F [Example 118]	> 30	> 30	< 0.1	<50.0
COCCNC(=O)c1cc(N)cc(-c2cnc(NC(C)C)c(=O)n2CC(=O)NCc2ccc(C(=N)N)cc2)c1.O=C(O)C(F)(F)F [Example 119]	> 30	< 30	< 0.1	<50.0
CC(C)Nc1ncc(-c2cc(N)cc(C(=O)OC(C)C)c2)n(CC(=O)NCc2ccc(C(=N)N)cc2)c1=O.O=C(O)C(F)(F)F [Example 124, Isopropyl 3-amino-5-[1-[2-({4-[amino(imino)methyl]benzyl}amino)-2-oxoethyl]-5-(isopropylamino)-6-oxo-1,6-dihydropyrazin-2-yl]benzoate]	> 30	> 30	< 0.1	<50.0
CC[C@H](C)NC(=O)c1cc(N)cc(-c2cnc(NC(C)C)c(=O)n2CC(=O)NCc2ccc(C(=N)N)cc2)c1.O=C(O)C(F)(F)F [Example 127]	> 30	< 30	< 0.1	<50.0
CCCC(C)C(=O)Nc1cc(N)cc(-c2cnc(NC(C)C)c(=O)n2CC(=O)NCc2ccc(C(=N)N)cc2)c1.O=C(O)C(F)(F)F.O=C(O)C(F)(F)F (stereo not drawn) [Example 128]	> 30	> 30	< 0.1	<50.0
CCCC(=O)Nc1cc(N)cc(-c2cnc(NC(C)C)c(=O)n2CC(=O)NCc2ccc(C(=N)N)cc2)c1.O=C(O)C(F)(F)F.O=C(O)C(F)(F)F [Example 130]	> 30	< 30	< 0.1	<50.0
CCC(C)C(=O)Nc1cc(N)cc(-c2cnc(NC(C)C)c(=O)n2CC(=O)NCc2ccc(C(=N)N)cc2)c1.O=C(O)C(F)(F)F.O=C(O)C(F)(F)F (stereo not drawn) [Example 131]	> 30	< 30	< 0.1	<50.0
CC(C)Nc1ncc(-c2cc(N)cc(NC(=O)CC(C)(C)C)c2)n(CC(=O)NCc2ccc(C(=N)N)cc2)c1=O.O=C(O)C(F)(F)F.O=C(O)C(F)(F)F [Example 133]	> 30	< 30	< 0.1	<50.0
CCC(CC)C(=O)Nc1cc(N)cc(-c2cnc(NC(C)C)c(=O)n2CC(=O)NCc2ccc(C(=N)N)cc2)c1.O=C(O)C(F)(F)F.O=C(O)C(F)(F)F [Example 134]	> 30	< 30	< 0.1	<50.0
CC(C)CCC(=O)Nc1cc(N)cc(-c2cnc(NC(C)C)c(=O)n2CC(=O)NCc2ccc(C(=N)N)cc2)c1.O=C(O)C(F)(F)F.O=C(O)C(F)(F)F [Example 135]	> 30	< 30	< 0.1	<50.0
CCCC(CCC)C(=O)Nc1cc(N)cc(-c2cnc(NC(C)C)c(=O)n2CC(=O)NCc2ccc(C(=N)N)cc2)c1.O=C(O)C(F)(F)F.O=C(O)C(F)(F)F [Example 136]	> 30	< 30	< 0.1	<50.0
CCCCC(CC)C(=O)Nc1cc(N)cc(-c2cnc(NC(C)C)c(=O)n2CC(=O)NCc2ccc(C(=N)N)cc2)c1.O=C(O)C(F)(F)F.O=C(O)C(F)(F)F (stereo not drawn) [Example 137]	> 30	< 30	< 0.1	<50.0
